Patent publication US12577469B2, “Compound, composition, cured product, optically anisotropic body, optical element, and light guide element” (FUJIFILM Corporation, priority 2021, dated 2026)

Columns and labels:
[1] = Evaluation of solubility in cyclopentanone (precipitation concentration); assay type: physicochemical; conditions: precipitation concentration in cyclopentanone at room temperature (25° C.)
[2] = Evaluation of liquid crystallinity of compound (hot stage, polarization microscope); assay type: physicochemical; design: key: A case of having liquid crystallinity was evaluated as A; a case of having no liquid crystallinity was evaluated as B; conditions: compound alone, heated on hot stage
Description: Each compound was heated on a hot stage and observed with a polarization microscope, and the phase transition temperature was measured to evaluate the presence or absence of liquid crystallinity. A case of having liquid crystallinity was evaluated as A, and a case of having no liquid crystallinity was evaluated as B. The results are shown in the column of “Liquid crystallinity” of “Compound 2” in Table 1.

SMILES	Compound 2 Solubility [1]	Compound 2 Liquid crystallinity [2]
C=CC(=O)OCCSc1ccc(C#Cc2ccc(OCc3ccc(C#Cc4ccc(COc5ccc(C#Cc6ccc(SCCOC(=O)C=C)cc6)cc5C(=O)OC)cc4)cc3)c(C(=O)OC)c2)cc1 [Compound B-4]	A (the solubility in a case where the precipitation concentration was more than 5% by mass was evaluated as A)	A
CC(=O)OCCc1ccc(C#Cc2ccc(OCc3ccc(C#Cc4ccc(COc5ccc(C#Cc6ccc(CCOC(C)=O)cc6)cc5C)cc4)cc3)c(C)c2)cc1 [Compound B-1]	B (the solubility in a case where the precipitation concentration was 5% by mass or less was evaluated as B)	A
C=CC(=O)OCCSc1ccc(C#Cc2ccc(OCc3ccc(C#Cc4ccc(COc5ccc(C#Cc6ccc(SCCOC(=O)C=C)cc6)cc5C)cc4)cc3)c(C)c2)cc1 [Compound B-3]	B (the solubility in a case where the precipitation concentration was 5% by mass or less was evaluated as B)	A
C=CC(=O)OCCc1ccc(C#Cc2ccc(OCc3ccc(C#Cc4ccc(COc5ccc(C#Cc6ccc(CCOC(=O)C=C)cc6)cc5C)cc4)cc3)c(C)c2)cc1 [Compound B-2]	B (the solubility in a case where the precipitation concentration was 5% by mass or less was evaluated as B)	A
